Patent US20230322805A1, “NOVEL PYRIMIDODIAZEPINE DERIVATIVES OR USES THEREOF” (SPARK BIOPHARMA, INC., priority 2020, published 2023)

Legend:
[1] = tested on: LC3-1 to LC3-II conversion (autophagy); experiment: Immunoblot of LC3-1 to LC3-II conversion and p62 in HEK293 BiFC-tau cells; format: cell-based, human; conditions: 5 μM SB1617, presence or absence of 500 nM TG, 6 hours
DNAJC3 [2] = molecular target: T1, DNAJC3 (Homo sapiens, UniProt Q13217); experiment: TS-FITGE thermal stability shift; format: binding; design: endogenous in cells; host or cells: HEK293 BiFC-tau cells (TS-FITGE, CETSA); conditions: 10 μM, 200 nM thapsigargin, 3 hours, HEK293 BiFC-tau cells
T1 sequence (Q13217 32-504): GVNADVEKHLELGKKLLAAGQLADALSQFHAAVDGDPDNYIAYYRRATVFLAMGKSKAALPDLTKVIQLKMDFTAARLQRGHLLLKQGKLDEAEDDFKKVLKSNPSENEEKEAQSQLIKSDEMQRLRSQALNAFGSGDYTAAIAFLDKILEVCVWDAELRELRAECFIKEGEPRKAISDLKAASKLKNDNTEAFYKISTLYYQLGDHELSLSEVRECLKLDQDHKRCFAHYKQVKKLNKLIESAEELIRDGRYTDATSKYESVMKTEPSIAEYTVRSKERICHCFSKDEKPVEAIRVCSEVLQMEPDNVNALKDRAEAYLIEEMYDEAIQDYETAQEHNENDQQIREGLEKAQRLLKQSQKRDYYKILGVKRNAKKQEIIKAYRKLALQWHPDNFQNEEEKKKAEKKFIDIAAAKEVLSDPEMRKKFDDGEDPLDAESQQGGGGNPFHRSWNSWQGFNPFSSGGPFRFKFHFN
Description: HEK293 BiFC-tau cells were treated with dimethylsulfoxide (DMSO, 0.1%) and a compound according to the present invention (10 μM) in the presence of thapsigargin (200 nM) for 3 hours. The cell suspension was heated at the indicated temperature range for 3 minutes and then at 25° C. for 3 minutes. The heated cells were washed with PBS and resuspended in lysis buffer A (0.4% NP-40 in PBS supplemented with protease inhibitor cocktail). For cell lysis, cell suspensions were freeze-thawed in liquid nitrogen three times. The cell lysate was washed by centrifugation at 20000 g, 4° C. for 20 minutes. Protein concentration of the soluble fraction was quantified by Pierce BCA protein assay. After precipitating 50 μg of protein with cold acetone, it was centrifuged at […] and 4° C. for 7 minutes. The residual pellet was resuspended in 10 μl of conjugation buffer (30 mM Tris-HCl at pH 8.6, 30 mM thiourea, 7 M urea and 4% w/v CHAPS). 1 μl of 0.4 mM Cy2-N-hydroxysuccinimide(Cy2-NHS) (for DMSO-treated group), Cy3-NHS (for SB1607-treated group) or Cy5-NHS (for SB1617-treated group) was mixed with the protein and incubated at 4° C. for 45 minutes. […] Protein spot locations and fluorescence signals were analyzed with DeCyder 2D software ver. […]

DNAJC3 [3] = molecular target: T1, DNAJC3; experiment: CETSA and pull-down assay with probe SB1624; format: binding; design: endogenous in cells; host or cells: HEK293 BiFC-tau cells (TS-FITGE, CETSA); SH-SY5Y cells (pull-down with probe SB1624); conditions: CETSA 10 μM in HEK293 BiFC-tau cells; pull-down 5 μM SB1624 with or without 40 μM SB1617 in SH-SY5Y cells
Description: HEK293 BiFC-tau cells were treated with DMSO (0.1%) and a compound according to the present invention (10 μM) in the presence of thapsigargin (200 nM) for 3 hours. The cell suspension was heated at the indicated temperature range for 3 minutes and then at 25° C. for 3 minutes. The heated cells were washed with PBS and resuspended in Lysis Buffer A. For cell lysis, cell suspensions were freeze-thawed in liquid nitrogen three times. The cell lysate was washed by centrifugation at 20000 g, 4° C. for 20 minutes. Equal volumes of washed cell lysate were combined with SDS buffer and subjected to immunoblotting.
SH-SY5Y cells were seeded in 6-well plates and then treated with 1 μM thapsigargin and 5 μM SB1624 (probe compound) for 2.5 hours with or without 40 μM SB1617. Cells were exposed to 356 nm UV irradiation for 30 min on ice. After washing with cold PBS, cells were lysed in RIPA buffer and removed by centrifugation at […] for 15 minutes at 4° C. The protein concentration of the supernatant was determined by Pierce BCA Protein Assay Kit and the protein concentration was adjusted to 1 mg/mL. […] Proteins were eluted by boiling with 3×SDS sample buffer and analyzed by SDS-PAGE and Western blot. […]

CN(Cc1ccc(Cl)cc1)c1ncnc2c1[C@@H]1OC[C@H](CN2)N1S(=O)(=O)c1ccc([N+](=O)[O-])cc1 [Compound 117]
conversion from LC3-1 to LC3-II [1]: conversion from light chain 3-1 (LC3-1) to LC3-II was confirmed | thermal stability of protein (TS-FITGE) (DNAJC3 [2]): thermal stability of the protein was improved | specific binding (CETSA, pull-down) (DNAJC3 [3]): specifically binds
